According to ChEMBL document CHEMBL1125536, “Studies on neurokinin antagonists. 2. Design and structure-activity relationships of novel tripeptide substance P antagonists, N alpha-[N alpha-(N alpha-acetyl-L-threonyl)-N1-formyl-D-tryptophyl]-N- methyl-N-(phenylmethyl)-L-phenylalaninamide and its related compounds” (J Med Chem, 1992):
Square brackets hold non-standard residues; d marks the D form. Peptide text beside a SMILES is read from it. * marks the point of attachment. Boc = CC(C)(C)OC(=O)*; OBn = c1ccc(CO*)cc1; For = O=C*

Species: Cavia porcellus
Test: Compound was tested for the inhibition of SP-induced contraction of isolated guinea pig trachea strips; call rule not given here
Type: functional

IC50 | Structure (SMILES)
2300 nM | CC(=O)NC(C(=O)N[C@H](Cc1cn(C=O)c2ccccc12)C(=O)N[C@@H](Cc1ccccc1)C(=O)N(C)Cc1ccccc1)C(C)O (stereo partly drawn)

Biological target: not listed separately
Test: Inhibition of [3H]SP binding to guinea pig lung membranes

Structure (SMILES) | IC50
CN(Cc1ccccc1)C(=O)[C@H](Cc1ccccc1)NC(=O)[C@@H](Cc1cn(C=O)c2ccccc12)NC(=O)C(Cc1c[nH]cn1)NC(=O)OC(C)(C)C (stereo partly drawn) | 140 nM
CC(=O)NC(Cc1c[nH]cn1)C(=O)N[C@H](Cc1cn(C=O)c2ccccc12)C(=O)N[C@@H](Cc1ccccc1)C(=O)N(C)Cc1ccccc1 (stereo partly drawn) | 100 nM
CC(O)C(N)C(=O)N[C@H](Cc1cn(C=O)c2ccccc12)C(=O)N[C@@H](Cc1ccccc1)C(=O)N(C)Cc1ccccc1 (stereo partly drawn) | 600 nM
C[C@@H](O)[C@H](NC(=O)CN)C(=O)N[C@H](Cc1cn(C=O)c2ccccc12)C(=O)N[C@@H](Cc1ccccc1)C(=O)N(C)Cc1ccccc1 | 230 nM
CC(C)(C)OC(=O)N[C@@H](CCC(N)=O)C(=O)N[C@H](Cc1cn(C=O)c2ccccc12)C(=O)N[C@@H](Cc1ccccc1)C(=O)CCc1ccccc1 | 430 nM
CC(O)C(NC(=O)CCN)C(=O)N[C@H](Cc1cn(C=O)c2ccccc12)C(=O)N[C@@H](Cc1ccccc1)C(=O)N(C)Cc1ccccc1 (stereo partly drawn) | 100 nM
CN(Cc1ccccc1)C(=O)[C@H](Cc1ccccc1)NC(=O)[C@@H](Cc1cn(C=O)c2ccccc12)NC(=O)CC(NC(=O)OC(C)(C)C)C(N)=O (stereo partly drawn) | 180 nM
CC(C)(C)OC(=O)N[C@@H](CCC(N)=O)C(=O)N[C@H](Cc1cn(C=O)c2ccccc12)C(=O)N[C@@H](Cc1ccccc1)C(=O)NCc1ccccc1 | 860 nM
CC(O)C(C(=O)N[C@H](Cc1cn(C=O)c2ccccc12)C(=O)N[C@@H](Cc1ccccc1)C(=O)N(C)Cc1ccccc1)N(C)C(=O)OC(C)(C)C (stereo partly drawn) | 290 nM
CN(Cc1ccccc1)C(=O)[C@H](Cc1ccccc1)NC(=O)[C@@H](Cc1cn(C=O)c2ccccc12)NC(=O)C1CC(O)CN1C(=O)OC(C)(C)C (stereo partly drawn) | 200 nM

Next, values leading:

IC50 | Structure (SMILES)
90 nM | CC(C)(C)OC(=O)N[C@@H](CCC(N)=O)C(=O)N[C@H](Cc1cn(C=O)c2ccccc12)C(=O)N[C@@H](Cc1ccccc1)C(=O)OCc1ccccc1 (Boc-Gln-[dW](For)-Phe-OBn)
60 nM | CC(O)C(NC(=O)OC(C)(C)C)C(=O)N[C@H](Cc1cn(C=O)c2ccccc12)C(=O)N[C@@H](Cc1ccccc1)C(=O)N(C)Cc1ccccc1 (stereo partly drawn)
50 nM | CC(=O)NC(CO)C(=O)N[C@H](Cc1cn(C=O)c2ccccc12)C(=O)N[C@@H](Cc1ccccc1)C(=O)N(C)Cc1ccccc1 (stereo partly drawn)
48 nM | CN(Cc1ccccc1)C(=O)[C@H](Cc1ccccc1)NC(=O)[C@@H](Cc1cn(C=O)c2ccccc12)NC(=O)[C@H](CCC(N)=O)NC(=O)OC(C)(C)C
40 nM | CN(C)C(=O)CCC(NC(=O)OC(C)(C)C)C(=O)N[C@H](Cc1cn(C=O)c2ccccc12)C(=O)N[C@@H](Cc1ccccc1)C(=O)N(C)Cc1ccccc1 (stereo partly drawn)
30 nM | CC(=O)NC(CCC(=O)N(C)C)C(=O)N[C@H](Cc1cn(C=O)c2ccccc12)C(=O)N[C@@H](Cc1ccccc1)C(=O)N(C)Cc1ccccc1 (stereo partly drawn)
20 nM | CCN(CC)CCC(=O)NC(C(=O)N[C@H](Cc1cn(C=O)c2ccccc12)C(=O)N[C@@H](Cc1ccccc1)C(=O)N(C)Cc1ccccc1)C(C)O (stereo partly drawn)
20 nM | CC(O)C(NC(=O)N1CCOCC1)C(=O)N[C@H](Cc1cn(C=O)c2ccccc12)C(=O)N[C@@H](Cc1ccccc1)C(=O)N(C)Cc1ccccc1 (stereo partly drawn)
20 nM | CC(O)C(NC(=O)CO)C(=O)N[C@H](Cc1cn(C=O)c2ccccc12)C(=O)N[C@@H](Cc1ccccc1)C(=O)N(C)Cc1ccccc1 (stereo partly drawn)
5.8 nM | CC(=O)NC(C(=O)N[C@H](Cc1cn(C=O)c2ccccc12)C(=O)N[C@@H](Cc1ccccc1)C(=O)N(C)Cc1ccccc1)C(C)O (stereo partly drawn)

Biological target: Substance-P receptor (Cavia porcellus, UniProt P30547)
Test: Compound was tested for the inhibition of [3H]SP binding to guinea pig lung membranes; Not active

Chain of Substance-P receptor (P30547 whole entry): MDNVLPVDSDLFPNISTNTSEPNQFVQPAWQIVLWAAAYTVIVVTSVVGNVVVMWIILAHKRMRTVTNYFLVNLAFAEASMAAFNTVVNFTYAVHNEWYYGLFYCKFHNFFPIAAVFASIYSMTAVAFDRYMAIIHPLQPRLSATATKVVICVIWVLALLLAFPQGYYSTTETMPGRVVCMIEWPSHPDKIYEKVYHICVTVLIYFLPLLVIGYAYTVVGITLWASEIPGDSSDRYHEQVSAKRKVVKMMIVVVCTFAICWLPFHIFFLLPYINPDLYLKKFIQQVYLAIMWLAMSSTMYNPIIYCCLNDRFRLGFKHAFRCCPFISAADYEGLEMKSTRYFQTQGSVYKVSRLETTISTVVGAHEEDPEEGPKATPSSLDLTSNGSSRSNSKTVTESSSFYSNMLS

IC50 | Structure (SMILES)
Not Active | CC(O)C(NC(=O)CCC(=O)O)C(=O)N[C@H](Cc1cn(C=O)c2ccccc12)C(=O)N[C@@H](Cc1ccccc1)C(=O)N(C)Cc1ccccc1 (stereo partly drawn)
Not Active | CC(O)C(NC(=O)CCCC(=O)O)C(=O)N[C@H](Cc1cn(C=O)c2ccccc12)C(=O)N[C@@H](Cc1ccccc1)C(=O)N(C)Cc1ccccc1 (stereo partly drawn)
